Measurements from US20220378802A1, “TREATMENT OF ALCOHOLIC HEPATITIS” (Durect Corporation, priority 2019, published 2022).
Entries after “also recorded” stand apart in the source; their conditions may differ.

Test system: patients with alcoholic hepatitis
Experiment: Pharmacodynamic signals (Lille score, MELD, bilirubin, survival) in Phase 2a trial
Type: in vivo, human
Procedure: As described in more detail below, a total of 19 patients were enrolled into an open-label Phase 2a multi-center trial, of whom 15 had Maddrey's Discriminant Function (MDF) ≥32 (Severe Alcoholic Hepatitis (SAH)), 12 had MELD scores at 21-30, and 11 had baseline serum bilirubin levels >8 mg/dL. All patients received IV infused 25HC3S (at 30, 90, or 150 mg) on Day 1 and Day 4 (if still hospitalized), and were followed for 28-days. The final enrollment was 19 patients comprised of: 8 patients (4 moderate and 4 severe) dosed at 30 mg, 7 patients (3 moderate and 4 severe) dosed at 90 mg, and 4 patients (4 severe) dosed at 150 mg.
• Study Drug A 25HC3S sodium salt solution contained: • 30 mg/mL 25HC3S sodium salt; • 240 mg/mL hydroxypropyl-beta-cyclodextrin; and • 50 mmole phosphate buffer • The 25HC3S sodium salt solution was diluted in 100 mL 5% dextrose or 0.9% sodium chloride infusion solution: • Dose 1: 30 mg of 25HC3S sodium salt in 100 mL 5% dextrose or 0.9% sodium chloride • Dose 2: 90 mg of 25HC3S sodium salt in 100 mL 5% dextrose or 0.9% sodium chloride • Dose 3: 150 mg of 25HC3S sodium salt in 100 mL 5% dextrose or 0.9% sodium chloride • 25HC3S sodium salt was administered by slow intravenous infusion over 2 hrs (50 mL/h) until the entire dose is given at Day 1 and Day 4. If a patient met the hospital discharge criteria prior to the second dose, the patient received only one dose instead of two doses. • Study Procedure The study was conducted in two parts. Part A included patients with MELD scores of 11-20 (moderate AH patients), and Part B included patients with MELD of scores 21-30. The doses of 25HC3S sodium salt administered were 30 mg and 90 mg for Part A and 30 mg, 90 mg and 150 mg for Part B, with 4 patients per dose group per Part (except for only 3 patients in the 90 mg cohort of Part A). All patients were followed to Day 28. • The study started in 4 moderate AH patients (Part A) at 30 mg dose level. After completing the dosing, a Dose Escalation Committee (DEC) reviewed safety, tolerability and pharmacokinetic (PK) data from all 4 patients and determined that it was safe to move forward to dose 4 severe AH patients (Part B) at the same dose level, 30 mg, as well as escalating the dose level to 90 mg in moderate patients (Part A). The same dose escalation procedure was then conducted in Part B until all 4 patients received 150 mg doses. • A flow diagram of the study is depicted in FIG. 2. Each dose cohort enrolled up to 4 subjects. Study subjects received up to 2 doses of 25HC3S sodium salt. The first dose was administered on Day 1 and, if still hospitalized, the second dose was administered on Day 4. A pharmacokinetic (PK) sample was collected at: Time 0 (pre-dose), 1 hour post-dose initiation, 2 hours (end of infusion), 3 hours post-dose initiation, 4 hours post-dose initiation, 8 hours post-dose initiation, 12 hours post-dose initiation, 24-hours post-dose initiation and 50 hours post-dose initiation.
• 1. Patients with alcoholic hepatitis defined in this clinical trial as: • a. History of heavy alcohol abuse: >40 g/day in females or >60 g/day in males for a minimum period of 6 months, AND • b. Consumed alcohol within 12 weeks of entry into the study, AND • c. Serum bilirubin >3 mg/dL AND AST>ALT, but less than 300 U/L, AND • d. MELD score between 11-30, inclusive A listing of the baseline laboratory characteristics of the subjects of each cohort is shown in the Table below. […]

[1] = All patients with 30 or 90 mg (14), Day 7
[2] = Baseline bilirubin >8 mg/dL (11), Day 7
[3] = Baseline bilirubin >8 mg/dL with 30 or 90 mg (8), Day 7
[4] = MELD 21-30 with 30 or 90 mg (8), Day 7
[5] = SAH with 30 or 90 mg (11), Day 7

SMILES: C[C@H](CCCC(C)(C)O)[C@H]1CC[C@H]2[C@@H]3CC=C4C[C@@H](OS(=O)(=O)O)CC[C@]4(C)[C@H]3CC[C@]12C [25HC3S, 5-cholesten-3,25-diol, 3-sulfate]
- patients with a Lille score below 0.45 (number of patients) (18 AH patients who returned for Day 7 visit): 16/18
- reductions from baseline in bilirubin (day 7 and 28) and MELD (day 28) compared with University of Louisville historical control (19 patients): statistically significantly greater reductions
- survival rate (28-day follow-up period, all patients): 100%
- Responders (Lille score <0.45) (All Patients (18), Day 7): 89%
- Lille Median (1st, 3rd quartile) [1]: 0.05 (0.04, 0.19)
- Responders (Lille score <0.45) [1]: 100%
- Lille Median (1st, 3rd quartile) [2]: 0.10 (0.05, 0.20)
- Responders (Lille score <0.45) [2]: 82%
- Lille Median (1st, 3rd quartile) [3]: 0.10 (0.05, 0.19)
- Responders (Lille score <0.45) [3]: 100%
- serum bilirubin levels (Day 7, one or two doses): significantly reduced
- MELD scores (Day 28, one or two doses): significantly reduced
- Lille Median (1st, 3rd quartile) (MELD 21-30 (12), Day 7): 0.19 (0.11, 0.25)
- Responders (Lille score <0.45) (MELD 21-30 (12), Day 7): 83%
- Lille Median (1st, 3rd quartile) [4]: 0.19 (0.10, 0.19)
- Responders (Lille score <0.45) [4]: 100%
- Lille Median (1st, 3rd quartile) (SAH (15), Day 7): 0.19 (0.05, 0.22)
- median reduction of MELD from baseline (SAH patients treated with 30 or 90 mg, Day 28, p=0.01): −19.0%
- MELD score change from baseline (SAH patients, Day 28, 1 or 2 doses, p=0.01): −17.5%
- Lille Median (1st, 3rd quartile) [5]: 0.12 (0.05, 0.19)
- Responders (Lille score <0.45) [5]: 100%
- Responders (Lille score <0.45) (SAH, MDF≥32 (15), Day 7): 87%
- reduction from baseline of serum total bilirubin levels (all AH patients (n=18), Day 7): −14%
- survival through 28-day follow-up period (all patients, including SAH): survived
- Lille score at Day 7 (all subjects administered 30 mg and 90 mg (FIG. 6)): less than 0.45
- Lille scores compared with published historical data (Louvet et al., 145 AH patients) (p<0.0001): significantly lower; also recorded: significantly better
- Lille scores compared with University of Louisville historical control (standard of care) (p=0.005): statistically significantly lower
- serum bilirubin change (patients with baseline bilirubin >8.0 mg/dL, Day 7, p=0.02): −25.1%
- Lille score at Day 7 (two of the subjects having severe AH administered 150 mg (FIG. 6)): greater than 0.45
